Laboratory results from ChEMBL document CHEMBL1926576, “Fragment based lead discovery of small molecule inhibitors for the EPHA4 receptor tyrosine kinase” (Eur J Med Chem, 2012).

What was measured:
[1] = Inhibition of VEGFR assessed as residual activity at 10 uM using [33P-ATP] by radiometric filter binding assay
[2] = target: MAP/microtubule affinity-regulating kinase 3 (Homo sapiens) (UniProt P27448); assay: Inhibition of MARK3 assessed as residual activity at 10 uM using [33P-ATP] by radiometric filter binding assay
[3] = target: Dual specificity protein kinase TTK (Homo sapiens) (UniProt P33981); assay: Inhibition of TTK assessed as residual activity at 10 uM using [33P-ATP] by radiometric filter binding assay
[4] = target: Angiopoietin-1 receptor (Homo sapiens) (UniProt Q02763); assay: Inhibition of TIE2 assessed as residual activity at 10 uM using [33P-ATP] by radiometric filter binding assay
[5] = target: Ephrin type-A receptor 2 (Homo sapiens) (UniProt P29317); assay: Inhibition of EPHA2 assessed as residual activity at 10 uM using [33P-ATP] by radiometric filter binding assay
[6] = target: Ephrin type-B receptor 3 (Homo sapiens) (UniProt P54753); assay: Inhibition of EPHB3 assessed as residual activity at 10 uM using [33P-ATP] by radiometric filter binding assay
[7] = target: Mitogen-activated protein kinase 1 (Homo sapiens) (UniProt P28482); assay: Inhibition of ERK2 assessed as residual activity at 10 uM using [33P-ATP] by radiometric filter binding assay
[8] = target: Homeodomain-interacting protein kinase 3 (Homo sapiens) (UniProt Q9H422); assay: Inhibition of HIPK3 assessed as residual activity at 10 uM using [33P-ATP] by radiometric filter binding assay
[9] = target: Protein kinase C alpha type (Homo sapiens) (UniProt P17252); assay: Inhibition of PKCalpha assessed as residual activity at 10 uM using [33P-ATP] by radiometric filter binding assay
[10] = target: Receptor-interacting serine/threonine-protein kinase 2 (Homo sapiens) (UniProt O43353); assay: Inhibition of RIPK2 assessed as residual activity at 10 uM using [33P-ATP] by radiometric filter binding assay
Sequence of Receptor-interacting serine/threonine-protein kinase 2 (Homo sapiens) (O43353 whole entry): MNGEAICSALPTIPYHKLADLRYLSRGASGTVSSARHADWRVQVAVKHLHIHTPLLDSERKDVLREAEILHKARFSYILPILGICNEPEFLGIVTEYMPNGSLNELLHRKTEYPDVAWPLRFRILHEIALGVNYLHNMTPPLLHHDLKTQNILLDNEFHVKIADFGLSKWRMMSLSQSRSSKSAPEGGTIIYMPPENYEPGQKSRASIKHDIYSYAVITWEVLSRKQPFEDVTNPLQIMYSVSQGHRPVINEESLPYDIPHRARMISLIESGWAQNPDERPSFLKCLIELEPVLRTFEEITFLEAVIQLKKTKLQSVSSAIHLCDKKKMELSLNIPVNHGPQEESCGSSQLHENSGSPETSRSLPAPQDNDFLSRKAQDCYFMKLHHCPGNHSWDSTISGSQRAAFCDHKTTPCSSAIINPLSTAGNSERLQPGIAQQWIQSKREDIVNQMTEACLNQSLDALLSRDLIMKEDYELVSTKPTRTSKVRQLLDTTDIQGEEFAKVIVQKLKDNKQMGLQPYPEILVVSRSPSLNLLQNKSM

[11] = target: 3-phosphoinositide-dependent protein kinase 1 (Homo sapiens) (UniProt O15530); assay: Inhibition of PDK1 assessed as residual activity at 10 uM using [33P-ATP] by radiometric filter binding assay
Sequence of 3-phosphoinositide-dependent protein kinase 1 (Homo sapiens) (O15530 whole entry, looked up): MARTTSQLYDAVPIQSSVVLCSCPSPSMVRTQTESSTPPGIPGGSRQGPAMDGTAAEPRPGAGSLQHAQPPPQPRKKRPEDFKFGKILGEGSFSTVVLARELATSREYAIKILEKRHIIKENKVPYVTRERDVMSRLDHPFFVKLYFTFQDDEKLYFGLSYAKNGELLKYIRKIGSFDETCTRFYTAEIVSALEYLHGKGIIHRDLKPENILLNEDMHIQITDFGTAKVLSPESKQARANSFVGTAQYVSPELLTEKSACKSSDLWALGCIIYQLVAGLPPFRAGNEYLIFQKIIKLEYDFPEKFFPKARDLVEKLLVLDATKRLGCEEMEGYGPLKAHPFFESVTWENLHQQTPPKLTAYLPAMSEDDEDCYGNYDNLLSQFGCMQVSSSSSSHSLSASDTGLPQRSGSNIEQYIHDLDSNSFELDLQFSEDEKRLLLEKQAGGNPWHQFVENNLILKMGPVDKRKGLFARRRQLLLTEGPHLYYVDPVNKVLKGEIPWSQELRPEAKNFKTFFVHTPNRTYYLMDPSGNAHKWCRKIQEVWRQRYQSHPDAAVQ

[12] = target: Mitogen-activated protein kinase 3 (Homo sapiens) (UniProt P27361); assay: Inhibition of ERK1 assessed as residual activity at 10 uM using [33P-ATP] by radiometric filter binding assay
Sequence of Mitogen-activated protein kinase 3 (Homo sapiens) (P27361 whole entry): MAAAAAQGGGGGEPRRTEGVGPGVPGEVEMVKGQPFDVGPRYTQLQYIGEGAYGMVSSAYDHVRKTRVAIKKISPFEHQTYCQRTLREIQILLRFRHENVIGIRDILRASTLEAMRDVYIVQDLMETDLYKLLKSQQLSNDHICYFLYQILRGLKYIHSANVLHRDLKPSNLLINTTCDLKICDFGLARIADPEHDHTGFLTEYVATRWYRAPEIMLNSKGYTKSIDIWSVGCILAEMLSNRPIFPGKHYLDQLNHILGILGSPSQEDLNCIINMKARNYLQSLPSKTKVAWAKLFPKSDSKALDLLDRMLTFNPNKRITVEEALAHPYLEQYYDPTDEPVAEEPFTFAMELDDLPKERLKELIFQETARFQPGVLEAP

[13] = target: Receptor tyrosine-protein kinase erbB-4 (Homo sapiens) (UniProt Q15303); assay: Inhibition of HER4 assessed as residual activity at 10 uM using [33P-ATP] by radiometric filter binding assay
[14] = target: Insulin receptor-related protein (Homo sapiens) (UniProt P14616); assay: Inhibition of IRR assessed as residual activity at 10 uM using [33P-ATP] by radiometric filter binding assay
[15] = target: Dual specificity mitogen-activated protein kinase kinase 6 (Homo sapiens) (UniProt P52564); assay: Inhibition of MKK6 assessed as residual activity at 10 uM using [33P-ATP] by radiometric filter binding assay
[16] = target: Aurora kinase B (Homo sapiens) (UniProt Q96GD4); assay: Inhibition of aurora-B assessed as residual activity at 10 uM using [33P-ATP] by radiometric filter binding assay
Sequence of Aurora kinase B (Homo sapiens) (Q96GD4 whole entry): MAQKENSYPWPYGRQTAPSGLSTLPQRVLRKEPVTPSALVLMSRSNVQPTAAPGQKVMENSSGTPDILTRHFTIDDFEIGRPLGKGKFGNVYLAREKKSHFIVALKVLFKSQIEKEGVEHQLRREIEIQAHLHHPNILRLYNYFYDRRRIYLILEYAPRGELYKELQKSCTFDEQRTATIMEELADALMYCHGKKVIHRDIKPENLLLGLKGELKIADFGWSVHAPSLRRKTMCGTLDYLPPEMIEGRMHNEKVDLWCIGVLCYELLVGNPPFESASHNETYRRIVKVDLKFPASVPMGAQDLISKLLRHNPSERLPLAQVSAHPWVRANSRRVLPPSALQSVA

[17] = target: Serine/threonine-protein kinase Nek6 (Homo sapiens) (UniProt Q9HC98); assay: Inhibition of NEK6 assessed as residual activity at 10 uM using [33P-ATP] by radiometric filter binding assay
Sequence of Serine/threonine-protein kinase Nek6 (Homo sapiens) (Q9HC98 whole entry): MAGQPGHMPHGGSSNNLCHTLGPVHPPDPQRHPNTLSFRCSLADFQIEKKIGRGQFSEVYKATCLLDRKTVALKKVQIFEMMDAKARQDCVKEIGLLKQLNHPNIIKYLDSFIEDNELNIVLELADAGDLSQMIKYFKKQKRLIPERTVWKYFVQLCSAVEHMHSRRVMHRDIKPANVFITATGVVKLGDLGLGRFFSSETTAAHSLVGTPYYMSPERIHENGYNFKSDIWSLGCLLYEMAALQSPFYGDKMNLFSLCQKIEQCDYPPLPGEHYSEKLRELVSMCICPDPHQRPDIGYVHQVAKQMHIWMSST

[18] = target: Inhibitor of nuclear factor kappa-B kinase subunit beta (Homo sapiens) (UniProt O14920); assay: Inhibition of IKK-beta assessed as residual activity at 10 uM using [33P-ATP] by radiometric filter binding assay
[19] = target: Eukaryotic elongation factor 2 kinase (Homo sapiens) (UniProt O00418); assay: Inhibition of EF2K assessed as residual activity at 10 uM using [33P-ATP] by radiometric filter binding assay
Sequence of Eukaryotic elongation factor 2 kinase (Homo sapiens) (O00418 whole entry): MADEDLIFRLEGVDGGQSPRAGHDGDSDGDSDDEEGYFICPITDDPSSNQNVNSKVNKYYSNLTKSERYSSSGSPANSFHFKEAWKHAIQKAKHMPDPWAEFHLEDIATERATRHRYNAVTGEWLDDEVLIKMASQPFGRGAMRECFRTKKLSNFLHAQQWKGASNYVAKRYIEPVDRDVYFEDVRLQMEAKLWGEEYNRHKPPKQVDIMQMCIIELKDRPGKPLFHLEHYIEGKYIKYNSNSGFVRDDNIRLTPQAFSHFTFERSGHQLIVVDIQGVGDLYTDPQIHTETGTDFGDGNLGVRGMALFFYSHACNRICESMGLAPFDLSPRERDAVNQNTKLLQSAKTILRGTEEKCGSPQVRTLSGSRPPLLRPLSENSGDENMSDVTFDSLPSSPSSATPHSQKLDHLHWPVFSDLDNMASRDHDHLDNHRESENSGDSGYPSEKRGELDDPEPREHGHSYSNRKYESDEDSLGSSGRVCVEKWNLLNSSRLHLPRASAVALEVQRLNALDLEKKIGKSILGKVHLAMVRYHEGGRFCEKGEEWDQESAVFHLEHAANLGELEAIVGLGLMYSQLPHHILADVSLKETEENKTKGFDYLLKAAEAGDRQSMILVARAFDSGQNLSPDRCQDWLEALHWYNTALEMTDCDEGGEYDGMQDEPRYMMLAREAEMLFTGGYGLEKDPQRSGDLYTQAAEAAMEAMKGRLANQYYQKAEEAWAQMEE

[20] = target: Dual specificity tyrosine-phosphorylation-regulated kinase 2 (Homo sapiens) (UniProt Q92630); assay: Inhibition of DYRK2 assessed as residual activity at 10 uM using [33P-ATP] by radiometric filter binding assay
[21] = target: Tyrosine-protein kinase CSK (Homo sapiens) (UniProt P41240); assay: Inhibition of CSK assessed as residual activity at 10 uM using [33P-ATP] by radiometric filter binding assay
[22] = target: Eukaryotic translation initiation factor 2-alpha kinase 3 (Homo sapiens) (UniProt Q9NZJ5); assay: Inhibition of EIF2AK3 assessed as residual activity at 10 uM using [33P-ATP] by radiometric filter binding assay
[23] = target: Mitogen-activated protein kinase kinase kinase kinase 2 (Homo sapiens) (UniProt Q12851); assay: Inhibition of GCK assessed as residual activity at 10 uM using [33P-ATP] by radiometric filter binding assay
[24] = target: Serine/threonine-protein kinase PLK1 (Homo sapiens) (UniProt P53350); assay: Inhibition of PLK1 assessed as residual activity at 10 uM using [33P-ATP] by radiometric filter binding assay
[25] = target: Testis-specific serine/threonine-protein kinase 1 (Homo sapiens) (UniProt Q9BXA7); assay: Inhibition of TSSK1 assessed as residual activity at 10 uM using [33P-ATP] by radiometric filter binding assay
Sequence of Testis-specific serine/threonine-protein kinase 1 (Homo sapiens) (Q9BXA7 whole entry): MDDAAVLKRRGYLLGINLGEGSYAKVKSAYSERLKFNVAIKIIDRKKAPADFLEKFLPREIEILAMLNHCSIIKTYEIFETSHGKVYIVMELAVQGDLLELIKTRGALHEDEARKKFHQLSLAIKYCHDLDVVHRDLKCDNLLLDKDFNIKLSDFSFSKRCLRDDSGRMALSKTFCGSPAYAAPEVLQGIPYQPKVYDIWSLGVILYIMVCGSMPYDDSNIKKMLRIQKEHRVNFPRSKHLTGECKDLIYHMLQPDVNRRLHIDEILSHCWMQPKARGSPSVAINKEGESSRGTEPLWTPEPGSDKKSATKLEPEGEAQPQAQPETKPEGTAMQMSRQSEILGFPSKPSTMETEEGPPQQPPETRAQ

[26] = target: Mitogen-activated protein kinase 9 (Homo sapiens) (UniProt P45984); assay: Inhibition of JNK2 assessed as residual activity at 10 uM using [33P-ATP] by radiometric filter binding assay
[27] = target: Interleukin-1 receptor-associated kinase 4 (Homo sapiens) (UniProt Q9NWZ3); assay: Inhibition of IRAK4 assessed as residual activity at 10 uM using [33P-ATP] by radiometric filter binding assay
Sequence of Interleukin-1 receptor-associated kinase 4 (Homo sapiens) (Q9NWZ3 whole entry): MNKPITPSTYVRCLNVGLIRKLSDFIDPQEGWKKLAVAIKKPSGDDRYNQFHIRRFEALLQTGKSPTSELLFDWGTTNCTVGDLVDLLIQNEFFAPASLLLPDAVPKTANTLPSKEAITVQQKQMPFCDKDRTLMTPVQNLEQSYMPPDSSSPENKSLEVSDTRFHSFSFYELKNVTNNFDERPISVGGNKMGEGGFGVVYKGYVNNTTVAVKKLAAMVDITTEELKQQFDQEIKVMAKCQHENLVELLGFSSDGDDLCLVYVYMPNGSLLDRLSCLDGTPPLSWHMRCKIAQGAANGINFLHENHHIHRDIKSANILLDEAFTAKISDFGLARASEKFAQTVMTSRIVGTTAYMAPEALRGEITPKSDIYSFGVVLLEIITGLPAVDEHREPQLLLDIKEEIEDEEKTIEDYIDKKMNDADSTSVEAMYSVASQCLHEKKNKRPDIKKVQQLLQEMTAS

[28] = target: Serine/threonine-protein kinase OSR1 (Homo sapiens) (UniProt O95747); assay: Inhibition of OSR1 assessed as residual activity at 10 uM using [33P-ATP] by radiometric filter binding assay
[29] = target: Serine/threonine-protein kinase pim-2 (Homo sapiens) (UniProt Q9P1W9); assay: Inhibition of PIM2 assessed as residual activity at 10 uM using [33P-ATP] by radiometric filter binding assay
[30] = target: Ephrin type-B receptor 2 (Homo sapiens) (UniProt P29323); assay: Inhibition of EPHB2 assessed as residual activity at 10 uM using [33P-ATP] by radiometric filter binding assay
[31] = target: Dual specificity mitogen-activated protein kinase kinase 1 (Homo sapiens) (UniProt Q02750); assay: Inhibition of MKK1 assessed as residual activity at 10 uM using [33P-ATP] by radiometric filter binding assay
[32] = target: Tau-tubulin kinase 1 (Homo sapiens) (UniProt Q5TCY1); assay: Inhibition of TTBK1 assessed as residual activity at 10 uM using [33P-ATP] by radiometric filter binding assay
Sequence of Tau-tubulin kinase 1 (Homo sapiens) (Q5TCY1 whole entry): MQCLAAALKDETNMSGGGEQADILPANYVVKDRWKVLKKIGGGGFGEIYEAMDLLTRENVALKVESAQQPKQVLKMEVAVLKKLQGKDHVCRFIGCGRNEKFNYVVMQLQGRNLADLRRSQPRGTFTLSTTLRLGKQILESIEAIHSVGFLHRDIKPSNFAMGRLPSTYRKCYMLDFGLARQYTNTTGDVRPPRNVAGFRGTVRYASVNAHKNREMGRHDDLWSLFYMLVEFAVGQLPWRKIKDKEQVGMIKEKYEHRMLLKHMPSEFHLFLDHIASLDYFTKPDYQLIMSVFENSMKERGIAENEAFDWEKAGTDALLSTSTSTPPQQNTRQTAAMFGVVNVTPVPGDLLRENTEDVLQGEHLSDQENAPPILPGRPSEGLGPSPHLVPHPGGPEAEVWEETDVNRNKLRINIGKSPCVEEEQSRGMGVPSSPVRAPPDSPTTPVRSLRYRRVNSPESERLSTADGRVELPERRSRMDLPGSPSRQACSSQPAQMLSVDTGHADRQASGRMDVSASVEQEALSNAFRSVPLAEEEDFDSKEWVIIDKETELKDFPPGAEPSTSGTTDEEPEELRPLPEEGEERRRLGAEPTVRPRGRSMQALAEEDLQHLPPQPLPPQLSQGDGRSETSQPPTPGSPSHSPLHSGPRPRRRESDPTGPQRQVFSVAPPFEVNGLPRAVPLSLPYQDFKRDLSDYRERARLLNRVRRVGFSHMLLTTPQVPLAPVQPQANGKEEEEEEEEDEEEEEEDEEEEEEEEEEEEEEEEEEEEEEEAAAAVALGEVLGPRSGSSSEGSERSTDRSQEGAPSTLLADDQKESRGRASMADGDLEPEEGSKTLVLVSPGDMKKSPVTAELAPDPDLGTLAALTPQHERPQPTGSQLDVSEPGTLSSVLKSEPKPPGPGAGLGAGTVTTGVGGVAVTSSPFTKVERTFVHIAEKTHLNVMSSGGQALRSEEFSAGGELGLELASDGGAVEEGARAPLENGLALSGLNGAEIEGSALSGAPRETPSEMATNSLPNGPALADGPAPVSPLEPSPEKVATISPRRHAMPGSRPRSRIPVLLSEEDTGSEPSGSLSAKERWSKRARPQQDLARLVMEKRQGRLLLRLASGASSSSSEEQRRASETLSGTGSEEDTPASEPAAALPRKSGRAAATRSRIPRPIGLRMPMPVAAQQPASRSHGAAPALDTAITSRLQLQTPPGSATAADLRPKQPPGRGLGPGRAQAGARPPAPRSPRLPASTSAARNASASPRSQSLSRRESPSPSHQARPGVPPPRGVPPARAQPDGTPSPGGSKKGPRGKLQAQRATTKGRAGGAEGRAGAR

[33] = target: Serine/threonine-protein kinase PAK 4 (Homo sapiens) (UniProt O96013); assay: Inhibition of PAK4 assessed as residual activity at 10 uM using [33P-ATP] by radiometric filter binding assay

Cc1ccc(F)cc1-c1nc2[nH]nc(N)c2c2c1CCCC2
Activity [1]: 76% | Activity [2]: 81% | Activity [3]: 81% | Activity [4]: 65% | Activity [5]: 29% | Activity [6]: 7% | Activity [7]: 98% | Activity [8]: 94% | Activity [9]: 112% | Activity [10]: 17% | Activity [11]: 103% | Activity [12]: 97% | Activity [13]: 56% | Activity [14]: 77% | Activity [15]: 86% | Activity [16]: 49% | Activity [17]: 86% | Activity [18]: 51% | Activity [19]: 114% | Activity [20]: 101% | Activity [21]: 35% | Activity [22]: 82% | Activity [23]: 59% | Activity [24]: 93% | Activity [25]: 75% | Activity [26]: 88% | Activity [27]: 55% | Activity [28]: 81% | Activity [29]: 100% | Activity [30]: 4% | Activity [31]: 29% | Activity [32]: 94% | Activity [33]: 82%
